Results published in patent publication US12138273B2 (Propella Therapeutics, Inc., priority 2019, dated 2024).

Legend:
[1] = Beagle, dog, in vivo
[2] = dog, in vivo
Description: An additional study was done using dogs as the animal model instead of rats.

Row | SMILES | mean AUCINF following IM administration, corrected for dose and time units [1] [ng·h/mL] | irritation at the injection site [2] | % F ([2]; male) [%] | measurable blood levels out to ([2]; male) [h] | AUCINF/Dose ([2]; male, im)
1 | C[C@]12CC[C@H](O)CC1=CC[C@@H]1[C@@H]2CC[C@]2(C)C(c3cccnc3)=CC[C@@H]12 [abiraterone, (3β)-17-(pyridin-3-yl) androsta-5, 16-dien-3-ol] | 105 | – | – | – | –
2 | CC(=O)O[C@H]1CC[C@@]2(C)C(=CC[C@@H]3[C@@H]2CC[C@]2(C)C(c4cccnc4)=CC[C@@H]32)C1 [abiraterone acetate] | – | irritating to the dogs at the injection site | 61.7 | 504 | 329
